Molecular target: T1, ppci1 (Aspergillus flavus, UniProt B8NRT5)
T1 construct: E. coli BL21(DE3), modified pRSFDuet-1; N-terminal 6xHis tag removed with PreScission protease
Assay: chymotrypsin-coupled PPIase assay, absorbance at […] nm
Type: biochemical
Settings: 15 °C, HEPES pH 8.0; substrate succinyl-AAPF-p-nitroanilide; figure labels traces FK506-CsA and FK506-Rap, possibly combined

T1 sequence (B8NRT5 1-122): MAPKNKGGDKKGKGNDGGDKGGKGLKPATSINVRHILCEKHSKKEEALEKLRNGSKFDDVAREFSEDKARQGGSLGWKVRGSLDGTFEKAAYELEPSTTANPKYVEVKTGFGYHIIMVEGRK

| SMILES | inhibition |
| --- | --- |
| C=CC[C@@H]1/C=C(\C)C[C@H](C)C[C@H](OC)[C@H]2O[C@@](O)(C(=O)C(=O)N3CCCC[C@H]3C(=O)O[C@H](/C(C)=C/[C@@H]3CC[C@@H](O)[C@H](OC)C3)[C@H](C)[C@@H](O)CC1=O)[C@H](C)C[C@@H]2OC [FK506, Tacrolimus] | activity of ppci1 was inhibited by these aforementioned drugs with constantly decreased absorption |
| CO[C@H]1C[C@@H]2CC[C@@H](C)[C@@](O)(O2)C(=O)C(=O)N2CCCC[C@H]2C(=O)O[C@H]([C@H](C)C[C@@H]2CC[C@@H](O)[C@H](OC)C2)CC(=O)[C@H](C)/C=C(\C)[C@@H](O)[C@@H](OC)C(=O)[C@H](C)C[C@H](C)/C=C/C=C/C=C/1C [Rap, Rapamycin] | We found that FK506, CsA and Rapamycin inhibit the protein activity of ppci1 |
